Assay results: ChEMBL document CHEMBL4831516, “Development of Membrane-Active Honokiol/Magnolol Amphiphiles as Potent Antibacterial Agents against Methicillin-Resistant Staphylococcus aureus (MRSA)” (J Med Chem, 2021)

Tested on: not listed separately
Test: Hemolytic activity in sheep RBC assessed as hemolysis incubated for 1 hr
Assay type: ADME, cell-based, Ovis aries, Erythrocyte
Settings: sheep red blood cells (erythrocytes)

SMILES	HC50 at 1 h [µg/mL]
C=CCc1ccc(O)c(-c2cc(CC=C)ccc2OCC[N+](C)(C)CC(=O)NCCCCC)c1.[Br-]	645
C=CCc1ccc(O)c(-c2cc(CC=C)ccc2OCC[N+](C)(C)CC(=O)NCCCC)c1.[Br-]	573
C=CCc1ccc(OCCC[N+](C)(C)CC(=O)NCC)c(-c2ccc(OCCC[N+](C)(C)CC(=O)NCC)c(CC=C)c2)c1.[Br-].[Br-]	1130

Tested on: Escherichia coli
Test: Antibacterial activity against Escherichia coli ATCC25922 assessed as inhibition of visible growth incubated for 16 to 18 hrs by CLSI method
Assay type: functional
Settings: time 16-18 hrs, read-out: MIC100

SMILES	MIC [µg/mL]
C=CCc1ccc(O)c(-c2cc(CC=C)ccc2OCC[N+](C)(C)CC(=O)NCCCCC)c1.[Br-]	32
C=CCc1ccc(O)c(-c2cc(CC=C)ccc2OCC[N+](C)(C)CC(=O)NCCCC)c1.[Br-]	32
C=CCc1ccc(OCCC[N+](C)(C)CC(=O)NCC)c(-c2ccc(OCCC[N+](C)(C)CC(=O)NCC)c(CC=C)c2)c1.[Br-].[Br-]	16

Tested on: Staphylococcus aureus
Test: Antibacterial activity against methicillin-resistant Staphylococcus aureus clinical isolate M-17 assessed as inhibition of visible growth incubated for 16 to 18 hrs by CLSI method
Assay type: functional
Settings: time 16-18 hrs, read-out: MIC100

SMILES	MIC [µg/mL]
C=CCc1ccc(O)c(-c2cc(CC=C)ccc2OCC[N+](C)(C)CC(=O)NCCCCC)c1.[Br-]	8
C=CCc1ccc(O)c(-c2cc(CC=C)ccc2OCC[N+](C)(C)CC(=O)NCCCC)c1.[Br-]	4
C=CCc1ccc(OCCC[N+](C)(C)CC(=O)NCC)c(-c2ccc(OCCC[N+](C)(C)CC(=O)NCC)c(CC=C)c2)c1.[Br-].[Br-]	4

Tested on: not listed separately
Test: Selectivity index, HC50 for hemolytic activity in sheep RBC to MIC for antibacterial activity against Staphylococcus aureus ATCC29213
Assay type: toxicity
Settings: sheep red blood cells (erythrocytes), read-out: Selectivity Index

SMILES	selectivity ratio
C=CCc1ccc(O)c(-c2cc(CC=C)ccc2OCC[N+](C)(C)CC(=O)NCCCCC)c1.[Br-]	80.7
C=CCc1ccc(O)c(-c2cc(CC=C)ccc2OCC[N+](C)(C)CC(=O)NCCCC)c1.[Br-]	143
C=CCc1ccc(OCCC[N+](C)(C)CC(=O)NCC)c(-c2ccc(OCCC[N+](C)(C)CC(=O)NCC)c(CC=C)c2)c1.[Br-].[Br-]	567

Tested on: Staphylococcus aureus
Test: Antibacterial activity against methicillin-resistant Staphylococcus aureus clinical isolate M-18 assessed as inhibition of visible growth incubated for 16 to 18 hrs by CLSI method
Assay type: functional
Settings: time 16-18 hrs, read-out: MIC100

SMILES	MIC [µg/mL]
C=CCc1ccc(O)c(-c2cc(CC=C)ccc2OCC[N+](C)(C)CC(=O)NCCCCC)c1.[Br-]	8
C=CCc1ccc(O)c(-c2cc(CC=C)ccc2OCC[N+](C)(C)CC(=O)NCCCC)c1.[Br-]	4
C=CCc1ccc(OCCC[N+](C)(C)CC(=O)NCC)c(-c2ccc(OCCC[N+](C)(C)CC(=O)NCC)c(CC=C)c2)c1.[Br-].[Br-]	4

Tested on: Staphylococcus aureus
Test: Antibacterial activity against methicillin-resistant Staphylococcus aureus clinical isolate M-12 assessed as inhibition of visible growth incubated for 16 to 18 hrs by CLSI method
Assay type: functional
Settings: time 16-18 hrs, read-out: MIC100

SMILES	MIC [µg/mL]
C=CCc1ccc(O)c(-c2cc(CC=C)ccc2OCC[N+](C)(C)CC(=O)NCCCCC)c1.[Br-]	16
C=CCc1ccc(O)c(-c2cc(CC=C)ccc2OCC[N+](C)(C)CC(=O)NCCCC)c1.[Br-]	8
C=CCc1ccc(OCCC[N+](C)(C)CC(=O)NCC)c(-c2ccc(OCCC[N+](C)(C)CC(=O)NCC)c(CC=C)c2)c1.[Br-].[Br-]	4

Tested on: Staphylococcus aureus
Test: Antibacterial activity against methicillin-resistant Staphylococcus aureus clinical isolate M-13 assessed as inhibition of visible growth incubated for 16 to 18 hrs by CLSI method
Assay type: functional
Settings: time 16-18 hrs, read-out: MIC100

SMILES	MIC [µg/mL]
C=CCc1ccc(O)c(-c2cc(CC=C)ccc2OCC[N+](C)(C)CC(=O)NCCCCC)c1.[Br-]	8
C=CCc1ccc(O)c(-c2cc(CC=C)ccc2OCC[N+](C)(C)CC(=O)NCCCC)c1.[Br-]	8
C=CCc1ccc(OCCC[N+](C)(C)CC(=O)NCC)c(-c2ccc(OCCC[N+](C)(C)CC(=O)NCC)c(CC=C)c2)c1.[Br-].[Br-]	4

Tested on: Staphylococcus aureus
Test: Antibacterial activity against methicillin-resistant Staphylococcus aureus clinical isolate M-20 assessed as inhibition of visible growth incubated for 16 to 18 hrs by CLSI method
Assay type: functional
Settings: time 16-18 hrs, read-out: MIC100

SMILES	MIC [µg/mL]
C=CCc1ccc(O)c(-c2cc(CC=C)ccc2OCC[N+](C)(C)CC(=O)NCCCCC)c1.[Br-]	8
C=CCc1ccc(O)c(-c2cc(CC=C)ccc2OCC[N+](C)(C)CC(=O)NCCCC)c1.[Br-]	4
C=CCc1ccc(OCCC[N+](C)(C)CC(=O)NCC)c(-c2ccc(OCCC[N+](C)(C)CC(=O)NCC)c(CC=C)c2)c1.[Br-].[Br-]	4

Tested on: Staphylococcus aureus
Test: Antibacterial activity against methicillin-resistant Staphylococcus aureus clinical isolate M-15 assessed as inhibition of visible growth incubated for 16 to 18 hrs by CLSI method
Assay type: functional
Settings: time 16-18 hrs, read-out: MIC100

SMILES	MIC [µg/mL]
C=CCc1ccc(O)c(-c2cc(CC=C)ccc2OCC[N+](C)(C)CC(=O)NCCCCC)c1.[Br-]	8
C=CCc1ccc(O)c(-c2cc(CC=C)ccc2OCC[N+](C)(C)CC(=O)NCCCC)c1.[Br-]	4
C=CCc1ccc(OCCC[N+](C)(C)CC(=O)NCC)c(-c2ccc(OCCC[N+](C)(C)CC(=O)NCC)c(CC=C)c2)c1.[Br-].[Br-]	4

Tested on: Enterococcus faecalis
Test: Antibacterial activity against Enterococcus faecalis ATCC29212 assessed as inhibition of visible growth incubated for 16 to 18 hrs by CLSI method
Assay type: functional
Settings: time 16-18 hrs, read-out: MIC100

SMILES	MIC [µg/mL]
C=CCc1ccc(O)c(-c2cc(CC=C)ccc2OCC[N+](C)(C)CC(=O)NCCCCC)c1.[Br-]	16
C=CCc1ccc(O)c(-c2cc(CC=C)ccc2OCC[N+](C)(C)CC(=O)NCCCC)c1.[Br-]	8
C=CCc1ccc(OCCC[N+](C)(C)CC(=O)NCC)c(-c2ccc(OCCC[N+](C)(C)CC(=O)NCC)c(CC=C)c2)c1.[Br-].[Br-]	4

Tested on: Bacillus subtilis
Test: Antibacterial activity against Bacillus subtilis assessed as inhibition of visible growth incubated for 16 to 18 hrs by CLSI method
Assay type: functional
Settings: time 16-18 hrs, read-out: MIC100

SMILES	MIC [µg/mL]
C=CCc1ccc(O)c(-c2cc(CC=C)ccc2OCC[N+](C)(C)CC(=O)NCCCCC)c1.[Br-]	4
C=CCc1ccc(O)c(-c2cc(CC=C)ccc2OCC[N+](C)(C)CC(=O)NCCCC)c1.[Br-]	2
C=CCc1ccc(OCCC[N+](C)(C)CC(=O)NCC)c(-c2ccc(OCCC[N+](C)(C)CC(=O)NCC)c(CC=C)c2)c1.[Br-].[Br-]	4

Tested on: Salmonella enterica
Test: Antibacterial activity against Salmonella enterica 349812 assessed as inhibition of visible growth incubated for 16 to 18 hrs by CLSI method
Assay type: functional
Settings: time 16-18 hrs, read-out: MIC100

SMILES	MIC [µg/mL]
C=CCc1ccc(O)c(-c2cc(CC=C)ccc2OCC[N+](C)(C)CC(=O)NCCCCC)c1.[Br-]	64
C=CCc1ccc(O)c(-c2cc(CC=C)ccc2OCC[N+](C)(C)CC(=O)NCCCC)c1.[Br-]	32
C=CCc1ccc(OCCC[N+](C)(C)CC(=O)NCC)c(-c2ccc(OCCC[N+](C)(C)CC(=O)NCC)c(CC=C)c2)c1.[Br-].[Br-]	64

Tested on: Staphylococcus aureus
Test: Antibacterial activity against Staphylococcus aureus ATCC29213 assessed as inhibition of visible growth incubated for 16 to 18 hrs by CLSI method
Assay type: functional
Settings: time 16-18 hrs, read-out: MIC100

SMILES	MIC [µg/mL]
C=CCc1ccc(O)c(-c2cc(CC=C)ccc2OCC[N+](C)(C)CC(=O)NCCCCC)c1.[Br-]	8
C=CCc1ccc(O)c(-c2cc(CC=C)ccc2OCC[N+](C)(C)CC(=O)NCCCC)c1.[Br-]	4
C=CCc1ccc(OCCC[N+](C)(C)CC(=O)NCC)c(-c2ccc(OCCC[N+](C)(C)CC(=O)NCC)c(CC=C)c2)c1.[Br-].[Br-]	2

Tested on: Staphylococcus aureus
Test: Antibacterial activity against methicillin-resistant Staphylococcus aureus clinical isolate M-14 assessed as inhibition of visible growth incubated for 16 to 18 hrs by CLSI method
Assay type: functional
Settings: time 16-18 hrs, read-out: MIC100

SMILES	MIC [µg/mL]
C=CCc1ccc(O)c(-c2cc(CC=C)ccc2OCC[N+](C)(C)CC(=O)NCCCCC)c1.[Br-]	8
C=CCc1ccc(O)c(-c2cc(CC=C)ccc2OCC[N+](C)(C)CC(=O)NCCCC)c1.[Br-]	4
C=CCc1ccc(OCCC[N+](C)(C)CC(=O)NCC)c(-c2ccc(OCCC[N+](C)(C)CC(=O)NCC)c(CC=C)c2)c1.[Br-].[Br-]	9

Tested on: Stenotrophomonas maltophilia
Test: Antibacterial activity against Stenotrophomonas maltophilia assessed as inhibition of visible growth incubated for 16 to 18 hrs by CLSI method
Assay type: functional
Settings: time 16-18 hrs, read-out: MIC100

SMILES	MIC [µg/mL]
C=CCc1ccc(O)c(-c2cc(CC=C)ccc2OCC[N+](C)(C)CC(=O)NCCCCC)c1.[Br-]	64
C=CCc1ccc(O)c(-c2cc(CC=C)ccc2OCC[N+](C)(C)CC(=O)NCCCC)c1.[Br-]	32
C=CCc1ccc(OCCC[N+](C)(C)CC(=O)NCC)c(-c2ccc(OCCC[N+](C)(C)CC(=O)NCC)c(CC=C)c2)c1.[Br-].[Br-]	32

Tested on: Staphylococcus aureus
Test: Antibacterial activity against methicillin-resistant Staphylococcus aureus clinical isolate M-16 assessed as inhibition of visible growth incubated for 16 to 18 hrs by CLSI method
Assay type: functional
Settings: time 16-18 hrs, read-out: MIC100

SMILES	MIC [µg/mL]
C=CCc1ccc(O)c(-c2cc(CC=C)ccc2OCC[N+](C)(C)CC(=O)NCCCCC)c1.[Br-]	8
C=CCc1ccc(O)c(-c2cc(CC=C)ccc2OCC[N+](C)(C)CC(=O)NCCCC)c1.[Br-]	4
C=CCc1ccc(OCCC[N+](C)(C)CC(=O)NCC)c(-c2ccc(OCCC[N+](C)(C)CC(=O)NCC)c(CC=C)c2)c1.[Br-].[Br-]	2

Tested on: Micrococcus luteus
Test: Antibacterial activity against Micrococcus luteus assessed as inhibition of visible growth incubated for 16 to 18 hrs by CLSI method
Assay type: functional
Settings: time 16-18 hrs, read-out: MIC100

SMILES	MIC [µg/mL]
C=CCc1ccc(O)c(-c2cc(CC=C)ccc2OCC[N+](C)(C)CC(=O)NCCCCC)c1.[Br-]	4
C=CCc1ccc(O)c(-c2cc(CC=C)ccc2OCC[N+](C)(C)CC(=O)NCCCC)c1.[Br-]	4
C=CCc1ccc(OCCC[N+](C)(C)CC(=O)NCC)c(-c2ccc(OCCC[N+](C)(C)CC(=O)NCC)c(CC=C)c2)c1.[Br-].[Br-]	4

Tested on: Staphylococcus aureus
Test: Antibacterial activity against methicillin-resistant Staphylococcus aureus clinical isolate M-19 assessed as inhibition of visible growth incubated for 16 to 18 hrs by CLSI method
Assay type: functional
Settings: time 16-18 hrs, read-out: MIC100

SMILES	MIC [µg/mL]
C=CCc1ccc(O)c(-c2cc(CC=C)ccc2OCC[N+](C)(C)CC(=O)NCCCCC)c1.[Br-]	8
C=CCc1ccc(O)c(-c2cc(CC=C)ccc2OCC[N+](C)(C)CC(=O)NCCCC)c1.[Br-]	4
C=CCc1ccc(OCCC[N+](C)(C)CC(=O)NCC)c(-c2ccc(OCCC[N+](C)(C)CC(=O)NCC)c(CC=C)c2)c1.[Br-].[Br-]	4

Tested on: Salmonella enterica
Test: Antibacterial activity against Salmonella enterica 8389 assessed as inhibition of visible growth incubated for 16 to 18 hrs by CLSI method
Assay type: functional
Settings: time 16-18 hrs, read-out: MIC100

SMILES	MIC [µg/mL]
C=CCc1ccc(O)c(-c2cc(CC=C)ccc2OCC[N+](C)(C)CC(=O)NCCCCC)c1.[Br-]	64
C=CCc1ccc(O)c(-c2cc(CC=C)ccc2OCC[N+](C)(C)CC(=O)NCCCC)c1.[Br-]	32
C=CCc1ccc(OCCC[N+](C)(C)CC(=O)NCC)c(-c2ccc(OCCC[N+](C)(C)CC(=O)NCC)c(CC=C)c2)c1.[Br-].[Br-]	32

Tested on: Staphylococcus aureus
Test: Antibacterial activity against methicillin-resistant Staphylococcus aureus clinical isolate M-11 assessed as inhibition of visible growth incubated for 16 to 18 hrs by CLSI method
Assay type: functional
Settings: time 16-18 hrs, read-out: MIC100

SMILES	MIC [µg/mL]
C=CCc1ccc(O)c(-c2cc(CC=C)ccc2OCC[N+](C)(C)CC(=O)NCCCCC)c1.[Br-]	16
C=CCc1ccc(O)c(-c2cc(CC=C)ccc2OCC[N+](C)(C)CC(=O)NCCCC)c1.[Br-]	8
C=CCc1ccc(OCCC[N+](C)(C)CC(=O)NCC)c(-c2ccc(OCCC[N+](C)(C)CC(=O)NCC)c(CC=C)c2)c1.[Br-].[Br-]	8
